From patent US7932387B2, “Crystalline forms of rosuvastatin calcium salt” (BASF SE, priority 2005, dated 2011)
Counter-ions that a name gives are not always drawn.

How the values were obtained:
[1] = Chemical and physical stability (comparison of solid forms); format: physicochemical; conditions: compared with the amorphous form; qualitative statement
[2] = Solubility in water and in physiological liquids (comparison of solid forms); format: physicochemical; conditions: compared with form A; qualitative statement

With `CC(C)c1nc(N(C)S(C)(=O)=O)nc(-c2ccc(F)cc2)c1/C=C/[C@@H](O)C[C@@H](O)CC(=O)O` [Form B, bis[(E)-7-[4-(4-fluorophenyl)-6-isopropyl-2-[methyl(methylsulfonyl)amino]pyrimidin-5-yl](3R,5S)-3,5-dihydroxyhept-6-enoic acid] calcium salt] the “chemical and physical stability” value [1] was “chemically and physically more stable than the amorphous form” and the “solubility in water and in physiological liquids” value [2] was “better soluble in water and in physiological liquids than form A”.
